Source: patent US8560243B2, “Methods for determining therapeutic index from gene expression profiles” (Microsoft Corporation, priority 1998, dated 2013)

Experiments:
off-target genes = assay: Transcriptional response to FK506 titration in yeast strain with CNA1 and CNA2 deleted; type: cell-based, S. cerevisiae
From the text: The response of those genes to FK506 were considered as off-target activity. Each ORF (Open Reading Frame) may be corresponding to an off-target gene.

yeast = assay: Growth of yeast under methotrexate titration; type: cell-based, S. cerevisiae; conditions: 100 μM titration
yeast gene YOL031C = assay: Yeast gene expression response to methotrexate exposure, Hill function fit; type: cell-based, S. cerevisiae; conditions: least squares fit
From the text: FIG. 4 illustrates the fit of a Hill function to the response of gene YOL031C illustrated in FIG. 3.
[formula] The adjustable parameters are selected independently for each cellular constituent of the drug response and for each cellular constituent of the pathway response. Preferably, the adjustable parameters are selected so that for each cellular constituent of each pathway response the sum of the squares of the distances of H(pi,l) from Ri,l(Pi,l) is minimized, and so that for each cellular constituent of the drug response the sum of the squares of the distances of H(tl) from Dk(tl) is minimized. This preferable parameter adjustment method is known in the art as a least squares fit of H( ) to Ri,k( ) or to Dk( ). Other possible model functions are based on polynomial fitting, for example by various known classes of polynomials.
Model fitting with a Hill function is illustrated with respect to FIGS. 3 and 4. As discussed, FIG. 3 illustrates an example of a pathway perturbed by methotrexate and identified by measurement. This figure illustrates the mRNA expression levels of 30 genes of the yeast S. cerevisiae that, of the approximately 6000 genes in the genome of this yeast, had the largest expression changes in response to six different exposure levels of methotrexate. FIG. 4 illustrates a fit of the pathway response of one of these gene expression levels by a Hill function. In particular, the yeast gene YOL031C was fit by a Hill function with parameters n=2, a=−0.61, and log10 (u0)=1.26 selected by the previously described least squares method.

From the text for calcineurin pathway: In this example, the expression of a number of genes are monitored as a wild type yeast culture is subjected to a graded levels of the drug FK506 (FIG. 8A). Similar experiments are repeated with a yeast culture whose CNA1 and CNA2 genes are deleted (FIG. 8B). CNA1 and CNA2 are two components of the calcineurin multi-protein complex. Because the drug FK506 acts upon the calcineurin protein to exert its activity on the calcineurin pathway. Deletion of CNA1 and CNA2 eliminates the primary target pathway for FK506. […]
Control cultures were treated with the same volume of just ethanol. Growth was monitored by OD600 and cells were harvested at OD600=1.4+/−0.1 by centrifugation for 2 min at ambient temperature in a Sorvall RC5C+ centrifuge in a SLA-1500 rotor. […]
Extent of hybridization was determined by scanning with a prototype multi-frame CCD camera slides produced by Applied Precision, Inc. Images were processed by informatics and imported into the Inpharna database and analyzed using the MatLab data analysis package.
The horizontal axis is concentrations of the FK506 in logarithmic scale and the vertical axis is the values of the logarithm of the expression ratio of the genes most affected by FK506 on the vertical axis. […] P-Value is the probability that the up or down regulation is due to measurement error, as determined from observed statistics of the errors in Log 10 (expression ratio).

C=CC[C@@H]1/C=C(\C)C[C@H](C)C[C@H](OC)[C@H]2O[C@@](O)(C(=O)C(=O)N3CCCC[C@H]3C(=O)O[C@H](/C(C)=C/[C@@H]3CC[C@@H](O)[C@H](OC)C3)[C@H](C)[C@@H](O)CC1=O)[C@H](C)C[C@@H]2OC [FK506]
Log10(Ratio) (off-target genes; ORF ARG1, deletion strain): 0.9516
Log10(Ratio) (off-target genes; ORF ARG4, deletion strain): 0.7774
Log10(Ratio) (off-target genes; ORF ARG5, 6, deletion strain): 0.9136
Log10(Ratio) (off-target genes; ORF ARO3, deletion strain): 0.6261
Log10(Ratio) (off-target genes; ORF CPA1, deletion strain): 0.5645
Log10(Ratio) (off-target genes; ORF CPA2, deletion strain): 0.645
Log10(Ratio) (off-target genes; ORF ECM13, deletion strain): 0.8176
Log10(Ratio) (off-target genes; ORF GRE2, deletion strain): 0.6836
Log10(Ratio) (off-target genes; ORF HIS3, deletion strain): 0.6152
Log10(Ratio) (off-target genes; ORF HIS4, deletion strain): 0.8178
Log10(Ratio) (off-target genes; ORF HIS5, deletion strain): 0.8266
Log10(Ratio) (off-target genes; ORF NCE3, deletion strain): 0.5112
Log10(Ratio) (off-target genes; ORF PDR5, deletion strain): 0.597
Log10(Ratio) (off-target genes; ORF RIB5, deletion strain): 0.7436
Log10(Ratio) (off-target genes; ORF SNO1, deletion strain): 0.7711
Log10(Ratio) (off-target genes; ORF SNQ2, deletion strain): 0.6624
Log10(Ratio) (off-target genes; ORF SNZ1, deletion strain): 0.9834
Log10(Ratio) (off-target genes; ORF YER175C, deletion strain): 1.0121
Log10(Ratio) (off-target genes; ORF YGL117W, deletion strain): 0.8608
Log10(Ratio) (off-target genes; ORF YHM1, deletion strain): 0.5235
Log10(Ratio) (off-target genes; ORF YMR085W, deletion strain): 0.7679
Log10(Ratio) (off-target genes; ORF YMR097C, deletion strain): 0.6945
Log10(Ratio) (off-target genes; ORF YOL150C, deletion strain): 0.7246
Log10(Ratio) (off-target genes; ORF YOR1, deletion strain): 0.5928
Log10(Ratio) (off-target genes; ORF YOR203W, deletion strain): 0.6378
Log10(Ratio) (off-target genes; ORF YPL088W, deletion strain): 0.4764
toxic concentration: off-target transcriptional responses of many genes reach two-fold induction or repression (off-target genes; by inspection of FIG. 8B, calcineurin-deleted strain): approximately 12 mg/ml
concentration at which expression of most genes affected via the primary target (calcineurin pathway) reaches two fold induction or repression (calcineurin pathway): 200 ng/mL
concentration at which expression of most off-target genes reaches two fold induction or repression (calcineurin pathway): 12000 ng/mL

CN(Cc1cnc2nc(N)nc(N)c2n1)c1ccc(C(=O)N[C@@H](CCC(=O)O)C(=O)O)cc1 [methotrexate]
growth defect (yeast): 50%
Hill function parameter a (yeast gene YOL031C): −0.61
Hill function parameter n (yeast gene YOL031C): 2
Hill function parameter log10 (u0) (yeast gene YOL031C; exposure levels in μM): 1.26
